Measured values from patent US20110046368A1, “LIGANDS OF 5-HT6 RECEPTORS, A PHARMACEUTICAL COMPOSITION, METHOD FOR THE PRODUCTION AND USE THEREOF” (priority 2006, published 2011).
Read-outs that look alike come from different tables or passages of the source.

Target: T1, serotonin 5-HT6 receptors (Homo sapiens, UniProt P50406)
T1 construct: expressed in transfected cells; host or cells: HeLa cells (membranes)
Assay: [3H]LSD displacement from 5-HT6 receptors expressed in HeLa cell membranes
Assay type: binding
Conditions: for Interaction efficiency of compounds of the general formula 1 with 5-HT6 receptor, %: displacement of 1.5 nM [3H]LSD, tested compounds at 10 mkM, 2 hr at 37° C.
Description: Investigation of ligand activity of azaheterocyclic compounds of the general formula 1 to 5-HT6 receptor. A focused library, including 3537 azaheterocyclic compounds of the general formula 1, their geometric isomers and pharmaceutically acceptable salts were tested for ligand activity to 5-HT6 receptor. Some examples of the tested azaheterocyclic compounds of the general formula 1 are represented in Tables 1-3, including: pyrrolo[4,3-b]indoles 1.2, 1.3 (Table 1), γ-carbolines 1.5, 1.6, 1.7 (Table 2) and azepino[4,3-b]indoles 1.10, 1.12, 1.13 (Tables 3). Ligand activity was determined by the ability of azaheterocyclic compounds of the general formula 1 to displace concurrently tritium-labelled diethyl […] of lysergic acid ([^3H]LSD), specifically bound to serotonin 5-HT6 receptors, which are expressed in HeLa cells membranes [Monsma F J Jr, Shen Y, Ward R P, Hamblin M W and Sibley D R (1993). Cloning and expression of a novel serotonin receptor with high affinity for tricyclic psychotropic drugs. Mol. Pharmacol. 43:320-3271. Cells membranes were incubated with 1.5 nM [^3H]LSD for 2 hr at 37° C. without and in the presence of tested compounds of 10 mkM concentration in the medium comprising: 50 mM Tris-HCl, pH 7.4, 150 mM NaCl, 2 mM ascorbic acid and 0.001% of bovine serum albumin. Nonspecific binding of [^3H]LSD was determined in the presence of 5 mkM of serotonin (5-HT). After incubation membrane suspensions were filtered through glass microfiber filters GF/A (Millipor, USA) and the residual radioactivity was measured by scintillation counter Microbeta 1840 (PerkinElmer). Investigated compounds interacted effectively with 5-HT6 receptor.
Measurements were carried out as it is described in example 1, except that the tested compounds were taken in various concentrations and % of displacement of [^3H]LSD was plotted as a function of compound's concentration (FIG. 1), on the basis of which IC50 (concentration of halfmaximum blocking of [^3H]LSD binding) values characterizing the seeming affinity of substituted azaheterocyclic compounds of the general formula 1 to 5-HT6 receptor were calculated (Table 5).

[1] = [3H]LSD displacement at various compound concentrations, HeLa cell membranes, read-out: IC50 (concentration of halfmaximum blocking of [3H]LSD binding), seeming affinity to 5-HT6 receptor

T1 sequence (P50406 whole entry): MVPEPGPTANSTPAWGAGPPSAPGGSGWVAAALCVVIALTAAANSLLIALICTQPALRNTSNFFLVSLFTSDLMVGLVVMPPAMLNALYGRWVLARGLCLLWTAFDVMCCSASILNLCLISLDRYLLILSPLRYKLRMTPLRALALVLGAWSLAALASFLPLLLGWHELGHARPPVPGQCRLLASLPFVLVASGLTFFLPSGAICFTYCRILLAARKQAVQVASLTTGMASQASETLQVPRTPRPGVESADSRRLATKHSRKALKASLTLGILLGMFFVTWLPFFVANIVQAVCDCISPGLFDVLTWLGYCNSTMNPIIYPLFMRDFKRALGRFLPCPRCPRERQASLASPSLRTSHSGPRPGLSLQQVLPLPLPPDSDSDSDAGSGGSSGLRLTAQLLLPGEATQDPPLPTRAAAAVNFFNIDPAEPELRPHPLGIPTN

Structure (SMILES)	IC50 [1]	Interaction efficiency of compounds of the general formula 1 with 5-HT6 receptor, % (HeLa cell membranes)	IC50
Cc1ccc(CCn2c3c(c4cc(C)ccc42)CN(C)CCC3)nc1 [1.10(50)]	1250 nM	84%	–
CN1CCc2c(c3ccccc3n2Cc2ccccc2)C1 [1.5(18)]	–	71%	–
Cc1ccc2c(c1)[C@@H]1CNCCC[C@@H]1N2CCc1cccnc1 [1.12(12)]	–	84%	–
Cc1ccc2c(c1)[C@@H]1CN(C)CC[C@@H]1N2C(=O)Nc1cccc(C(F)(F)F)c1 [1.7(1)]	–	47%	–
Cc1ccc2c(c1)c1c(n2CCc2ccccn2)CCCN(C)C1 [1.10(49)]	–	88%	–
Cc1ccc2c(c1)c1c(n2CCc2ccc(C)nc2)CCN(C)C1 [1.5(20)]	74 nM	100%	–
Cc1ccc2c(c1)c1c(n2CCc2ccncc2)CCCN(C)C1 [1.10(51)]	1060 nM	84%	–
Cc1ccc2c(c1)C1CN(C)CCC1N2C(=O)c1ccccc1 (centres unmarked) [1.6(6)]	–	52%	–
Cc1ccc2c(c1)[C@@H]1CN(C)CCC[C@H]1N2CCc1cccnc1 [1.13(13)]	–	93%	787 nM
Cc1ccc2c(c1)c1c(n2CCc2cccnc2)CCCN(C)C1 [1.10(53)]	738 nM	79%	–
Cc1ccc2c(c1)[C@@H]1CNCCC[C@@H]1N2CCc1ccc(C)nc1 [1.12(13)]	–	76%	–
Cc1ccc2c(c1)C1CN(C)CCC1N2S(=O)(=O)c1nc2cc(C)nc(C)n2n1 (centres unmarked) [1.6(22)]	–	82%	–
Cc1ccc(S(=O)(=O)n2c3c(c4cc(C)ccc42)CN(C)C3)cc1 [1.2(39)]	–	77%	–
Cc1ccc2c(c1)[C@@H]1CN(C)CCC[C@H]1N2CCc1ccc(C)nc1 [1.13(3)]	–	93%	–
Cc1ccc2c(c1)[C@@H]1CN(C)C[C@@H]1N2CCc1ccc(C)nc1 [1.3(9)]	–	27%	–
